{
  "source": "patent US20140271573A1",
  "about": "“PHARMACO-CELLULAR THERAPEUTIC METHOD FOR THE TREATMENT OF MUSCULAR DYSTROPHIES” (PONTIFICIA UNIVERSIDAD CATÓLICA DE CHILE, priority 2013, published 2014)",
  "key": {"mdx mice [1]": {"test_system": "mdx mice", "test": "Survival and proliferation of grafted EGFP satellite cells in mdx mice, EGFP transgene real time qPCR", "assay_type": "in vivo, mouse", "description": "Alternatively, it might be possibly that the host muscles have a diminished density of satellite cells, thus, the grafted cells would have no competition for the regenerating muscle fibers or instead the transplanted cells presents a better proliferation performance in the andrographolide treated mice muscles. The first possibility seems to be plausible considering the fibroblast migration data (FIG. 5), while the second hypothesis was excluded since no changes in the number of satellite cells present on isolated EDL myofibers obtained from the same transplanted mice in FIG. 5A were observed, with a mean of 12.5 satellite cells per EDL myofiber, as shown in the FIG. 5B. To test the last possibility, whether grafted cells have improved proliferation rate or survival, we purified satellite cells from the EGFP-transgenic C57BL/6 mice that constitutively expressed the EGFP transgene under the control of the chicken b-actin gene (C57BL/6-Tg(ACTbEGFP)10sba; Act-EGFP). […] The EGFP transgene present in the grafted muscles was detected by real time qPCR in parallel with the mouse b-actin as a housekeeping gene. Since every grafted cell carries only one copy of the EGFP gene (the homozygous EGFP mice die within 2 weeks after birth) the EGFP gene detection constitutes a specific, rapid, and objective quantitation of the grafted cells."}, "mdx mice [2]": {"test_system": "mdx mice", "test": "Satellite cell graft into tibialis anterior of andrographolide pre-treated mdx mice", "assay_type": "in vivo, mouse", "experimental": "FIG. 8. Muscle stem cell therapy with satellite cells is improved by reducing the muscle fibrosis by the treatment with andrographolide. A) 3 months old mdx mice were subjected to an exercise protocol for 4 months to augment the extent of muscle fibrosis. During this period one group was treated with andrographolide or vehicle (i.p. injections 3 time per week, 6 animal per group). 1 week after the last drug administration (7 month old mice), 500 freshly isolated satellite cells (SC) purified from WT mice were transplanted in both tibialis anterior muscle of each mdx mouse. 4 weeks after the engraftment the number of fibers expressing dystrophin and collagen I were determined by immunofluorescence on cryosections. The images are representative of 2 experimental group with 6 mice per group. B) Quantification of the data obtained in A showing the number of myofibers expressing dystrophin per tibialis anterior muscle in each case. C) The number of satellite cells (PAX-7 positive nuclei) were determined on isolated single muscle fibers from extensor digitoriumlongus muscle (EDL) in each case as indicative of the endogenous SC survival.\nThe isolation of single myofibers were prepared essentially as described (Kelly et al., 1995, Collins 2005), briefly extensor digitorium (EDL) and soleus muscles from 6 weeks old C57-BL10 mice were dissected and digested in 0.2% (w/v) collagenase type 1 (Sigma) in DMEM (Gibco) 4 mM L-glutathatmine (Sigma) and 1% penicillin and streptomycin solution (Sigma) for […] in a 37° C. water bath. After gentle muscle trituration only single and stretched myofibers were collected in DMEM. The myofibers were washed by serial transfers in 4 dishes (pre-coated with horse serum to prevent myofiber attachment) containing DMEM. The myofibers were finally collected in DMEM containing 10% FBS, 10% horse serum, 0.5% chick embryo extract and 5 ng/ml of FGF-2 (R&D) and cultured for 30 min in a 5% CO2 cell culture incubator.\nSatellite cells were separated from the myofibers by physical trituration using the method of Collins et al (2005). Briefly, the isolated intact fibers were suspended in 10 ml of complete medium and triturated with a 19 G needle mounted on a 1 ml syringe. The suspension was sequentially passed through a 70 um and 40 um cell sieve (Falcon) to remove debris. The satellite cell suspension was centrifuged for 15 min at 450 RCF. The pellet was resuspended in physiologic serum (NaCl 0.9%). An aliquot was stained with Hoechst 1 ug/ml and cholera toxin sub unit B conjugated to Alexa Fluor 488 (Invitrogen) 1 ug/ml for 5 minutes, washed with PBS and incubated with trypan blue. The double stained cells that exclude the trypan blue were counted in a hemocytometer as viable cells. The concentration of cells was adjusted to 25 cell/μl. […]"}, "[3]": {"test_system": "WT mice that overexpress CTGF", "test": "Macrophages (F4/80 positive cells) in tibialis anterior of WT mice overexpressing CTGF by adenovirus", "assay_type": "in vivo, mouse", "settings": "CTGF overexpressed by adenovirus", "experimental": "FIG. 3. Andrographolide modulates CTGF action in vivo. A) To augment the extent of muscle fibrosis, 3 months old mdx mice were subjected to an exercise protocol for 3 months. Along this period one group was treated with 1 mg/kg andrographolide or vehicle (i.p. injections 3 time per week, 4 animal per group). CTGF mRNA levels, a downstream TGF-β1 pro-fibrotic mediator) were determined in tibialis anterior muscle from Wild type (WT), Vehicle-Treated mdx and andrographolide-treated mdx mice by RT-qPCR using GAPDH as reference gene. Values correspond to the mean of dCT value±SD of three independent experiments, using four mice for each experimental condition and normalized to WT levels (*, P<0.05 relative to WT mice; #, P<0.05 relative to Vehicle-treated mdx mice). B) Detection of macrophages (F4/80 positive cells) through immunohistochemistry analysis in cryosections of tibialis anterior muscle from andrographolide-treated WT mice that overexpress CTGF by adenovirus (adv CTGF) infection.\nFor immunofluorescence, snap-frozen muscles in thawing isopentane were sectioned and cryosections (7 μm) were fixed in 4% paraformaldehyde, blocked 1 hour in 10% goat serum in PBS, incubated for one hour at room temperature with specific antibodies against fibronectin (Sigma, USA), collagen I (Chemicon, USA), F4/80 (abcam, USA), p-Smad2 (abcam, USA) and dystrophin (Santa Cruz, USA). […]"}, "C2C12": {"test_system": "C2C12", "test": "Fibronectin and collagen type III protein levels induced by TGF-β1 in C2C12 cells, immunoblot", "assay_type": "cell-based, mouse", "settings": "C2C12, 10 ng/ml TGF-β1, 50 μM andrographolide, 24 hrs"}},
  "data": [
    {"smiles": "C=C1CC[C@@H]2[C@](C)(CO)[C@H](O)CC[C@@]2(C)[C@@H]1C/C=C1/C(=O)OC[C@H]1O", "note": "[andrographolide]", "values": [
      {"measurement": "percentage of grafted cells compared to the fibrotic untreated mice", "setting": "mdx mice [1]; 15 days post transplantation, EGFP transgene qPCR", "result": 3, "unit": "times"},
      {"measurement": "transplanted cells that die during the first 2 days", "setting": "mdx mice [1]; EGFP satellite cells grafted in mdx mice, in both cases (treated and untreated)", "result": 60, "unit": "%"},
      {"measurement": "increase in number of dystrophin positive fibers compared to controls", "setting": "mdx mice [2]; mdx mice pre-treated with andrographolide, 500 WT satellite cells grafted per tibialis anterior, one month after transplantation", "result": 3, "unit": "times"},
      {"measurement": "collagen-I content after satellite cell transplantation", "setting": "mdx mice [2]; mdx mice pre-treated with andrographolide, one month after transplantation, immunofluorescence", "result": "clear reduction"},
      {"measurement": "change in number of satellite cells present on isolated EDL myofibers", "setting": "mdx mice [2]; same transplanted mdx mice, PAX-7 positive nuclei, endogenous satellite cells", "result": "no changes"},
      {"measurement": "mean satellite cells per EDL myofiber", "setting": "mdx mice [2]; same transplanted mdx mice, no change between treated and untreated", "result": "12.5 satellite cells per EDL myofiber"},
      {"measurement": "number of F4/80 (macrophage marker) positive cells", "setting": "[3]", "result": "reduced"},
      {"measurement": "collagen type III protein levels induced by TGF-β1 in vitro", "setting": "C2C12", "result": "decreased"},
      {"measurement": "fibronectin protein levels induced by TGF-β1 in vitro", "setting": "C2C12", "result": "decreased"}
    ]}
  ]
}
